Reference: the supplement of paper PMC10331698
± gives the standard deviation of the averaged measurements.

Key:
Assay in all cases: level (log10 ratio to DMSO vehicle control); higher = higher biomarker level / cell amount than vehicle control
Details in all cases: in DMSO
[1] = compound: NS(=O)(=O)C(F)(F)C(F)(F)C(F)(F)C(F)(F)C(F)(F)C(F)(F)F [Perfluorohexanesulfonamide]
Description: (§1)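 BioMAP Diversity Plus panel of 12 human primary cell co-culture systems (3C, 4H, LPS, SAg, BT, BF4T, BE3C, CASM3C, HDF3CGF, KF3CT, MyoF, Mphg). Compounds were added 1 h before stimulation and left for 24 h (MyoF 48 h; BT 72 h for soluble read-outs or 6 d for IgG). Biomarkers were read by ELISA, cytotoxicity by SRB, PBMC viability and proliferation by Alamar Blue. Each well value was divided by the mean of 8 DMSO control wells on the same plate and log10 transformed; duplicate blinded samples were tested at 4 concentrations.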

[2] = compound: FC(F)(F)C(F)(F)C(F)(F)CC1CO1 [1H,1H-Heptafluorobutyl epoxide]
Description: as §1

[3] = compound: FC(F)(F)C(F)(F)C(F)(F)CI [Heptafluorobutyl iodide]
Description: as §1

[4] = compound: NC(=O)C(F)(F)C(F)(F)C(F)(F)C(F)F
Description: as §1

[5] = compound: O=S(=O)(F)C(F)(F)C(F)(F)C(F)(F)C(F)(F)C(F)(F)C(F)(F)C(F)(F)C(F)(F)F [Perfluorooctanesulfonyl fluoride]
Description: as §1

[6] = compound: O=C(O)C=CC(F)(C(F)(F)F)C(F)(F)F [3-(Perfluoroisopropyl)-2-propenoic acid]
Description: as §1

Row | Test System | level (log10) ([1]; 6700 nM) | level (log10) ([1]; 20000 nM) | level (log10) ([1]; 60000 nM) | level (log10) ([2]; 6700 nM) | level (log10) ([2]; 20000 nM) | level (log10) ([2]; 60000 nM) | level (log10) ([3]; 6700 nM) | level (log10) ([3]; 20000 nM) | level (log10) ([3]; 60000 nM) | level (log10) ([4]; 6700 nM) | level (log10) ([4]; 20000 nM) | level (log10) ([4]; 60000 nM) | level (log10) ([5]; 6700 nM) | level (log10) ([5]; 20000 nM) | level (log10) ([5]; 60000 nM) | level (log10) ([6]; 6700 nM) | level (log10) ([6]; 20000 nM) | level (log10) ([6]; 60000 nM)
1 | BF4T:MMP-1 | 0 ± 0.0014 | -0.012 ± 0.0042 | -0.018 ± 0.0014 | 0.014 ± 0.02 | 0.009 ± 0.024 | 0.019 ± 0.048 | -0.005 ± 0.013 | -0.0055 ± 0.0035 | 0.0055 ± 0.012 | 0.003 ± 0.0085 | -0.003 ± 0.0085 | 0.0075 ± 0.0035 | -0.0075 ± 0.00071 | -0.0115 ± 0.005 | 0.001 ± 0.0071 | -0.0055 ± 0.012 | -0.0055 ± 0.0035 | 0.017 ± 0.03
2 | BF4T:MMP-3 | -0.0185 ± 0.00071 | -0.011 ± 0.0042 | 0.0695 ± 0.061 | 0.003 ± 0.0028 | 0.0005 ± 0.0035 | -0.008 ± 0.02 | 0.0245 ± 0.036 | -0.02 ± 0.0014 | 0.026 ± 0.017 | 0.01 ± 0.033 | -0.005 ± 0.047 | 0.0075 ± 0.047 | -0.0015 ± 0.0021 | -0.0095 ± 0.025 | 0.026 ± 0.047 | -0.003 ± 0.014 | -0.0035 ± 0.015 | 0.0205 ± 0.033
3 | BF4T:MMP-9 | 0.0205 ± 0.021 | 0.011 ± 0.0085 | -0.003 ± 0.0085 | 0.0005 ± 0.011 | -0.0055 ± 0.022 | -0.008 ± 0.0085 | -0.008 ± 0.0085 | -0.018 ± 0.013 | 0.0025 ± 0.03 | 0.013 ± 0.051 | -0.006 ± 0.055 | -0.001 ± 0.047 | 0.007 ± 0.02 | -0.007 ± 0.0099 | 0.015 ± 0.0028 | 0.0015 ± 0.029 | 0.004 ± 0.0099 | 0.025 ± 0.04
4 | BF4T:PAI-I | 0.002 ± 0.0099 | 0.003 ± 0.0057 | -0.0115 ± 0.005 | -0.0035 ± 0.011 | -0.007 ± 0.0057 | -0.02 ± 0.0014 | 0.0005 ± 0.0092 | -0.002 ± 0.0042 | 0.0065 ± 0.021 | -0.0005 ± 0.019 | -0.0095 ± 0.021 | 0.004 ± 0.0085 | 0.004 ± 0.0014 | -0.0005 ± 0.0035 | 0.02 ± 0.0085 | 0 ± 0.0099 | 0.001 ± 0.0014 | 0.0155 ± 0.026
5 | BF4T:SRB | -0.005 ± 0.0042 | -0.012 ± 0.0042 | -0.0345 ± 0.005 | -0.004 ± 0.0057 | 0.0005 ± 0.005 | 0.0025 ± 0.005 | 0.001 ± 0.0028 | -0.002 ± 0.0071 | 0.0015 ± 0.0064 | -0.0075 ± 0.00071 | -0.0125 ± 0.011 | -0.0025 ± 0.0078 | -0.0025 ± 0.0035 | -0.002 ± 0.0042 | 0.0145 ± 0.025 | -0.008 ± 0.011 | -0.008 ± 0.0099 | 0.006 ± 0.018
6 | BF4T:tPA | 0.004 ± 0.0028 | -0.012 ± 0.0085 | -0.075 ± 0.016 | -0.012 ± 0.014 | -0.0235 ± 0.018 | -0.0065 ± 0.011 | -0.016 ± 0.0042 | -0.0235 ± 0.0078 | -0.009 ± 0.05 | -0.0005 ± 0.021 | -0.0115 ± 0.022 | 0.0125 ± 0.005 | -0.003 ± 0.027 | -0.0155 ± 0.016 | -0.008 ± 0.0099 | -0.004 ± 0.037 | -0.0055 ± 0.022 | 0.03 ± 0.024
7 | BF4T:uPA | -0.003 ± 0.0042 | 0.0005 ± 0.0035 | -0.01 ± 0.011 | -0.0065 ± 0.013 | 0.0025 ± 0.022 | -0.028 ± 0.034 | -0.008 ± 0.014 | -0.0095 ± 0.022 | -0.0045 ± 0.016 | -0.001 ± 0.023 | -0.0145 ± 0.015 | -0.004 ± 0.021 | 0.007 ± 0.0028 | 0 ± 0.011 | 0.0095 ± 0.0092 | -0.007 ± 0.016 | -0.016 ± 0.0057 | 0.0065 ± 0.018
8 | BT:B cell Proliferation | 0.0025 ± 0.063 | 0.034 ± 0.047 | 0.086 ± 0.0042 | -0.021 ± 0.038 | 0.008 ± 0.033 | -0.008 ± 0.034 | 0.021 ± 0.021 | 0.015 ± 0.0071 | 0.021 ± 0.0042 | 0.0115 ± 0.0092 | -0.001 | 0.0215 ± 0.0092 | -0.0145 ± 0.016 | -0.011 ± 0.013 | 0.008 ± 0.021 | 0.0085 ± 0.0021 | -0.011 ± 0.0014 | 0.012 ± 0.037
